# Measurements from US8449635B2, “Abrasive articles and methods for making same” (Saint-Gobain Abrasives, Inc., priority 2007, dated 2013).
# Experiment: Solubility of photoinitiator
# Type: physicochemical
structure (smiles),measurement,value
"Cc1cc(C)c(C(=O)P(=O)(C(=O)c2c(C)cc(C)cc2C)c2ccccc2)c(C)c1 [Irgacure 819, bis(2,4,6-trimethylbenzoyl) phenyl phosphine oxide]",Solubility (wt %),<5 wt %
